This note sets out measurements from paper PMC8151276, “An Integrated Approach toward NanoBRET Tracers for Analysis of GPCR Ligand Engagement” (Molecules, 2021).

One experiment has as its target T1, FZD5 (Homo sapiens, UniProt Q13467).
T1 construct: purchased Promega (in-house HiBiT-GPCR construct library, NanoBRET)
Description: NanoBRET screen HiBiT-FZD5 in HEK293. It is filed as binding. How it is done: (§1) Each tracer candidate was screened across the entire library of HiBiT-GPCR constructs using NanoBRET as the detection modality. As depicted in Figure 4A, the specificity of interactions was evaluated through decrease in BRET due to competitive displacement of a bound tracer by excess parental compound. Each tracer was analyzed for binding to each HiBiT-GPCR fusion in the absence and in the presence of competing parental compound. Briefly, HEK293 cells were transfected with HiBiT-GPCR constructs diluted into promoterless DNA to reduce expression and maximize translocation to the cell surface. Each tracer candidate was then screened at concentrations of 1 μM and 0.1 μM across cells expressing these fusions. Cells were treated for 1.5 h with tracer either alone or in the presence of 20 μM competing parental compound (i.e., control). BRET was measured upon addition of purified LgBiT and subsequent complementation with HiBiT genetically fused to a GPCR. The specificity of interactions was assessed through a decrease in BRET signal due to competitive displacement of the bound tracer. To further gauge the robustness of these interactions, the fold response over the control (i.e., BRETtracer/BRETcontrol) was calculated. We chose a 1.5-fold response, which translates to ≥7-fold signal over noise as the minimal threshold required to score an interaction as positive. […]. Below we highlight the screening results obtained for our exemplary fluorescent tracers based on Clozapine, Amitriptyline and AZD1283.
(§2) HiBiT-GPCR DNA constructs were diluted in 10 mM Tris pH 8 to a final concentration of 0.01 μg/μL, arrayed in 96-well plates and stored at −20 °C. For transfection, HEK293 cells were suspended in Opti-MEM (without phenol red) supplemented with 2% fetal bovine serum (Seradigm) and 100 units/mL penicillin–streptomycin (Gibco) at a final concentration of 220,000 cells/mL and dispensed into white 96-well plates at 90 μL/well. Subsequent transfections and screens were carried using an Agilent Bravo Automated Liquid Handling Platform. First, the 96-well HiBiT DNA arrays were diluted 25-fold in Opti-MEM (without serum or phenol red) to a final concentration of 0.0004 μg/μL and 20 μL of the diluted DNAs were transferred into new 96-well plates. Next, promoterless carrier DNA (1 μg/μL) was diluted 25-fold (0.04 μg/μL) and then dispensed into the diluted arrays at 20 μL/well. Following brief mixing, Viafect transfection reagent (Promega) diluted 16-fold into Opti-MEM was dispensed into the plates at 40 μL/well. After mixing by pipetting, plates were incubated for 10 min on the pipetting station deck. The DNA-transfection reagent complexes were then added to plates containing cells. To facilitate the screen, 10 μL of DNA-transfection reagent complexes were added in duplicates to the top 4 and bottom 4 rows, resulting in two identical 48-well arrays per plate. Plates with transfected cells were incubated for 18–20 h at 37 °C/5% CO2. A screen of each tracer across the entire library using two different concentrations requires duplicate plates of transfected cells. Depending on the number of tracers being screened, transfections can be scaled up using the same ratios. The next day, for each tracer, four 20× screening solutions in tracer dilution buffer (Promega) were prepared: two duplicates at final concentration of 20 μM and two duplicates at a final concentration of 2 μM. A competing unmodified compound was added to one of each duplicate at a final concentration of 400 μM. The four resulting solutions were diluted 4-fold in Opti-MEM without serum or phenol red to generate 5× solutions (5 µM and 0.5 µM tracer +/− 100 μM competing compound). To screen the library, a BioTek MultiFlo FX liquid dispenser was used to dispense 22.5 µL of tracer solution to the top 4 rows and 22.5 µL tracer + competing compound solution to the 4 bottom rows. Plates were briefly mixed on an orbital shaker and incubated for 1.5 h at room temperature. […]
In general terms: BRET reads energy transfer from a luciferase to a nearby fluorophore.

Another experiment deals with T2, SSTR2 (Homo sapiens, UniProt P30874).
T2 construct: purchased Promega (in-house HiBiT-GPCR construct library, NanoBRET)
Kind of experiment: NanoBRET screen HiBiT-SSTR2 in HEK293. It counts as binding. On the procedure: as §1, §2

T2 sequence (P30874 whole entry): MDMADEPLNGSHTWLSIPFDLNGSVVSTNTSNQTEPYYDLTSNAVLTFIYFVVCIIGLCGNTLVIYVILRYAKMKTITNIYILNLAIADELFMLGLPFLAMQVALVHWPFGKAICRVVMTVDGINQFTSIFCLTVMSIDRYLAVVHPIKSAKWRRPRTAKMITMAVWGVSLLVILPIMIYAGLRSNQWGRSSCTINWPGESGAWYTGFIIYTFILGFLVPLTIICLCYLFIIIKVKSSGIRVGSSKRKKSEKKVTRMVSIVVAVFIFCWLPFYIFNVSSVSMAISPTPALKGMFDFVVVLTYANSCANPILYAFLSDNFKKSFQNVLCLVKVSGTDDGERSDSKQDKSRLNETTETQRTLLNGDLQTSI
T1 sequence (Q13467 27-585): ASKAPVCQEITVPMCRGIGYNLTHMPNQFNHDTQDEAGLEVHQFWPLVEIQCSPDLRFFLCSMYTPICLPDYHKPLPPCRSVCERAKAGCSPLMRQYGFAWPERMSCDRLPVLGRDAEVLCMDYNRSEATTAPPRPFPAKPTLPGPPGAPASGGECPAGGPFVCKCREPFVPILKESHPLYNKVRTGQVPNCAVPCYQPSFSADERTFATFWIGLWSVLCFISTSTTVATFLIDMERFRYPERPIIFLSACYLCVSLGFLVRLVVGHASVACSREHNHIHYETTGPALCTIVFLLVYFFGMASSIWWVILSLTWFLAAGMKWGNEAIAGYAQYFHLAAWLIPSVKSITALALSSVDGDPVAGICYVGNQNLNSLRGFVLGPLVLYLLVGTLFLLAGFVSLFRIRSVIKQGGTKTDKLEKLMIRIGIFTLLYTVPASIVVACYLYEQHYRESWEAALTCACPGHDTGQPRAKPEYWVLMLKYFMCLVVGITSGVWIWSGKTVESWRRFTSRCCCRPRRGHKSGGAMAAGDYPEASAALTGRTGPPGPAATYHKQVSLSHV

Turning to `COc1ccc2c(n1)c(CCNC(C)=O)cn2CCNC(=O)CCc1ccc2n1[B-](F)(F)[N+]1=C(c3ccc[nH]3)C=CC1=C2` [Azamelatonin-1-NB590], the “NanoBRET Fold Response” value on FZD5 (0.1μM tracer) is 0.88; at FZD5 (1μM tracer), 0.88; on SSTR2 (0.1μM tracer), 1.07; on SSTR2 (1μM tracer), 0.88.

With `CC(C)N(CC[C@H](c1ccccc1)c1cc(CCNC(=O)c2ccc(CNC(=O)CCc3ccc4n3[B-](F)(F)[N+]3=C(c5ccc[nH]5)C=CC3=C4)cc2)ccc1O)C(C)C` [Tolterodine-BZ-NB590], the “NanoBRET Fold Response” value on FZD5 (FZD5, tracer 0.1μM) turned out to be 1.12; at FZD5 (FZD5, tracer 1μM) it was 1.03; on SSTR2 (SSTR2, tracer 0.1μM) it was 0.95; at SSTR2 (SSTR2, tracer 1μM) it was 1.00.

With `O=C(CCc1ccc2n1[B-](F)(F)[N+]1=C(c3ccc[nH]3)C=CC1=C2)NCCOCCOCCNC(=O)OCCOCCN1CCN(C2=Nc3ccccc3Sc3ccccc32)CC1` [Quetiapine-a-2-NB590], the “NanoBRET Fold Response” value amounted to 1.03 on FZD5 (FZD5, tracer 0.1μM); 0.91 at FZD5 (FZD5, tracer 1μM); 1.03 at SSTR2 (SSTR2, tracer 0.1μM); 0.77 at SSTR2 (SSTR2, tracer 1μM).

For `Cc1cc2c(s1)Nc1ccccc1N=C2N1CCN(CCCNC(=O)CCOCCOCCOCCOCCNC(=O)CCc2ccc3n2[B-](F)(F)[N+]2=C(c4ccc[nH]4)C=CC2=C3)CC1` [Olanzapine-a-2-NB590], the “NanoBRET Fold Response” value on FZD5 (FZD5, tracer 0.1μM) worked out at 1.00; at FZD5 (FZD5, tracer 1μM) it was 1.02; at SSTR2 (SSTR2, tracer 0.1μM) it was 1.03; on SSTR2 (SSTR2, tracer 1μM) it was 0.96.

As for `O=C(CCc1ccc2n1[B-](F)(F)[N+]1=C(c3ccc[nH]3)C=CC1=C2)NCc1ccc(C(=O)NCCOCCOCCNCC(O)COc2cccc3ccccc23)cc1` (stereo not drawn) [Propranolol-3-NB590], the “NanoBRET Fold Response” value at FZD5 (FZD5, 0.1μM) was 1.07; at FZD5 (FZD5, 1μM), 1.02; on SSTR2 (SSTR2, 0.1μM) it was 1.04; at SSTR2 (SSTR2, 1μM), 1.01.

With `CN1CCN(C2=Nc3cc(Cl)ccc3N(CC(=O)NCCOCCOCCOCCOCCNC(=O)CCc3ccc4n3[B-](F)(F)[N+]3=C(c5ccc[nH]5)C=CC3=C4)c3ccccc32)CC1` [Clozapine-c-2-NB590], the “NanoBRET Fold Response” value on FZD5 (FZD5, 0.1μM tracer) was found to be 1.00; on FZD5 (FZD5, 1μM tracer), 1.04; on SSTR2 (SSTR2, 0.1μM tracer), 0.97; at SSTR2 (SSTR2, 1μM tracer) it was 1.00.

With `O=C(CCc1ccc2n1[B-](F)(F)[N+]1=C(c3ccc[nH]3)C=CC1=C2)NCc1ccc(C(=O)NCCOCCC(=O)N[C@@H]2CC[C@@]3(O)[C@H]4Cc5ccc(O)c6c5[C@@]3(CCN4CC3CC3)[C@H]2O6)cc1` [Naltrexone-3-NB590], the “NanoBRET Fold Response” value at FZD5 (FZD5, tracer 0.1μM) worked out at 0.99; at FZD5 (FZD5, tracer 1μM), 0.98; on SSTR2 (SSTR2, tracer 0.1μM), 1.06; at SSTR2 (SSTR2, tracer 1μM), 0.93.

Consider `CC(C)N(CC[C@H](c1ccccc1)c1cc(CCNC(=O)CCOCCOCCOCCOCCNC(=O)CCc2ccc3n2[B-](F)(F)[N+]2=C(c4ccc[nH]4)C=CC2=C3)ccc1O)C(C)C` [Tolterodine-2-NB590], for which the “NanoBRET Fold Response” value on FZD5 (FZD5, tracer 0.1μM) turned out to be 0.87; at FZD5 (FZD5, tracer 1μM), 1.07; on SSTR2 (SSTR2, tracer 0.1μM), 1.04; on SSTR2 (SSTR2, tracer 1μM), 1.00.

In the case of `Cc1nc2n(c(=O)c1CCN1CCC(c3noc4cc(F)ccc34)CC1)CCCC2OC(=O)NCCOCCOCCOCCOCCNC(=O)CCc1ccc2n1[B-](F)(F)[N+]1=C(c3ccc[nH]3)C=CC1=C2` (stereo not drawn) [Risperidone-2-NB590], the “NanoBRET Fold Response” value turned out to be 0.95 at FZD5 (FZD5, tracer 0.1μM); 0.99 at FZD5 (FZD5, tracer 1μM); 0.98 at SSTR2 (SSTR2, tracer 0.1μM); 1.01 on SSTR2 (SSTR2, tracer 1μM).

Turning to `O=C(CCOCCOCCOCCOCCNC(=O)CCc1ccc2n1[B-](F)(F)[N+]1=C(c3ccc[nH]3)C=CC1=C2)NCCCN1CCN(C2=Nc3cc(Cl)ccc3Nc3ccccc32)CC1` [Clozapine-a-2-NB590], the “NanoBRET Fold Response” value was 1.15 on FZD5 (FZD5, 0.1μM tracer); 0.95 at FZD5 (FZD5, 1μM tracer); 1.03 at SSTR2 (SSTR2, 0.1μM tracer); 1.07 at SSTR2 (SSTR2, 1μM tracer).

With `COc1ccc2[nH]c(-c3ccc(CNC(=O)CCOCCOCCOCCOCCNC(=O)CCc4ccc5n4[B-](F)(F)[N+]4=C(c6ccc[nH]6)C=CC4=C5)cc3)c(CCNC(C)=O)c2n1` [AzomelatoninICO9-2-NB590], the “NanoBRET Fold Response” value on FZD5 (0.1μM tracer) is 0.97; at FZD5 (1μM tracer) it was 0.93; on SSTR2 (0.1μM tracer) it was 1.10; on SSTR2 (1μM tracer), 1.00.

For the compound `CN1CCN(C2=Nc3cc(Cl)ccc3Nc3ccc(CNC(=O)CCOCCOCCOCCOCCNC(=O)CCc4ccc5n4[B-](F)(F)[N+]4=C(c6ccc[nH]6)C=CC4=C5)cc32)CC1` [Clozapine-b-2-NB590], the “NanoBRET Fold Response” value came out at 1.00 on FZD5 (FZD5, 0.1μM tracer); 1.04 at FZD5 (FZD5, 1μM tracer); 1.03 on SSTR2 (SSTR2, 0.1μM tracer); 1.01 at SSTR2 (SSTR2, 1μM tracer).

In the case of `COc1ccccc1N1CCN(CCCCN2C(=O)c3ccc(CNC(=O)CCOCCNC(=O)c4ccc(CNC(=O)CCc5ccc6n5[B-](F)(F)[N+]5=C(c7ccc[nH]7)C=CC5=C6)cc4)cc3C2=O)CC1` [NAN-190-3-NB590], the “NanoBRET Fold Response” value on FZD5 (FZD5, tracer 0.1μM) amounted to 0.97; on FZD5 (FZD5, tracer 1μM) it was 1.00; on SSTR2 (SSTR2, tracer 0.1μM), 1.00; at SSTR2 (SSTR2, tracer 1μM), 1.10.

Take `N#CN=C(NCCCOc1cccc(CN2CCCCC2)c1)NCCNC(=O)CCOCCOCCOCCOCCNC(=O)CCc1ccc2n1[B-](F)(F)[N+]1=C(c3ccc[nH]3)C=CC1=C2` [Aminopotentidine-2-NB590]: the “NanoBRET Fold Response” value at FZD5 (FZD5, tracer 0.1μM) was 1.06; at FZD5 (FZD5, tracer 1μM), 1.05; at SSTR2 (SSTR2, tracer 0.1μM), 0.98; on SSTR2 (SSTR2, tracer 1μM), 1.02.

Take `CN(C)CCC=C1c2ccccc2CCc2ccc(C(=O)NCCNC(=O)CCOCCOCCOCCOCCNC(=O)CCc3ccc4n3[B-](F)(F)[N+]3=C(c5ccc[nH]5)C=CC3=C4)cc21` [Amitriptyline-b-2-NB590]: the “NanoBRET Fold Response” value is recorded as 0.97 at FZD5 (tracer at 0.1μM); 0.99 at FZD5 (tracer at 1μM, listed as amitriptyline-b-2-NB590); 0.99 at SSTR2 (tracer at 1μM).

In the case of `COc1ccccc1N1CCN(CCCCN2C(=O)c3ccc(CNC(=O)CCOCCOCCOCCOCCNC(=O)CCc4ccc5n4[B-](F)(F)[N+]4=C(c6ccc[nH]6)C=CC4=C5)cc3C2=O)CC1` [NAN-190-2-NB590], the “NanoBRET Fold Response” value stood at 0.97 at FZD5 (FZD5, tracer 0.1μM); 1.00 on FZD5 (FZD5, tracer 1μM); 0.99 on SSTR2 (SSTR2, tracer 0.1μM); 1.03 at SSTR2 (SSTR2, tracer 1μM).

As for `O=C(CCOCCOCCOCCOCCNC(=O)CCc1ccc2n1[B-](F)(F)[N+]1=C(c3ccc[nH]3)C=CC1=C2)NCCCN1CCN(C2=Nc3ccccc3Oc3ccc(Cl)cc32)CC1` [Loxapine-a-2-NB590], the “NanoBRET Fold Response” value is listed as 1.01 on FZD5 (FZD5, tracer 0.1μM); 0.89 at FZD5 (FZD5, tracer 1μM); 1.03 at SSTR2 (SSTR2, tracer 0.1μM); 1.31 on SSTR2 (SSTR2, tracer 1μM).

Turning to `CN(CCC=C1c2ccccc2CCc2ccccc21)C(=O)CCOCCOCCOCCOCCNC(=O)CCc1ccc2n1[B-](F)(F)[N+]1=C(c3ccc[nH]3)C=CC1=C2` [Amitriptyline-e-2-NB590], the “NanoBRET Fold Response” value on FZD5 (tracer at 1μM) was found to be 0.98.

Take `CCCn1c(=O)c2[nH]c(-c3ccc(OCC(=O)NCCNC(=O)CCOCCNC(=O)c4ccc(CNC(=O)CCc5ccc6n5[B-](F)(F)[N+]5=C(c7ccc[nH]7)C=CC5=C6)cc4)cc3)nc2n(CCC)c1=O` [XAC-3-NB590]: the “NanoBRET Fold Response” value at FZD5 (FZD5, tracer 0.1μM) amounted to 1.13; at FZD5 (FZD5, tracer 1μM) it was 0.95; at SSTR2 (SSTR2, tracer 0.1μM) it was 0.97; at SSTR2 (SSTR2, tracer 1μM), 1.06.
